The values below come from a melting point compilation (Tetko et al.; mined from patent text by program, amines drawn as free bases though some values may be those of a salt).

Non-standard residues stand in square brackets, D forms with d. Residues, ends and D or L forms follow the SMILES beside them. *: point of attachment. Tos = Cc1ccc(S(=O)(=O)*)cc1; PhAc = O=C(Cc1ccccc1)*; Sar = CNCC(=O)O; NHNH2 = NN*

Compound `Cc1ccc(C2CCN(C(=O)CCC(=O)c3ccc4c(c3)CN(C(C)C)CC4)CC2)cc1` gave a melting point of 78 to 80 °C.
Turning to `COC(=O)c1nc(-c2ccc(Cl)c(OC)c2F)c(F)c(NC(C)=O)c1Cl`, the melting point was 175 to 177 °C.
In turn, `CCCNC(=O)Nc1ccccc1Nc1ccc(C(=O)c2ccccc2)cc1` gave a melting point of 167 to 169 °C.
In turn, `O=C(CC1c2ccccc2C(=O)N1c1ccc2ccc(Cl)nc2n1)N1CCC2(CC1)OCCO2` (stereo unspecified) had a melting point of 238 to 239 °C.
For the compound `CC(C)Cn1c(=O)n(C)c(=O)c2c(-c3ccsc3)c(Cc3ccccc3C(F)(F)F)sc21`, the melting point was in the range of 113 to 114 °C.
For `CC(NC(=O)C1CCCN1C(=O)Cc1ccccc1)C(=O)NN` (stereo not drawn) (PhAc-Pro-Ala-NHNH2; configuration not given here), the melting point lay within 142 to 143 °C.
As for `O=C(NO)[C@H](CNS(=O)(=O)c1ccc(OCc2ccc(Cl)c(Cl)c2)cc1)N1CCCCC1`, the figure is 166 °C.
The figure for `COc1nc(C)nc(NC(=O)NS(=O)(=O)c2ccccc2C(=S)C(C)C)n1` is 155 to 158 °C; for `CC(=O)c1c(SSc2c(C(C)=O)c3ccccc3n2C)n(C)c2ccccc12` it is 178 to 180 °C; for `N=C(N)c1ccc(C(=O)Nc2ccc(Nc3cc(-c4cccc5c4oc4ccccc45)ncn3)cc2)cc1` it is 213 to 219 °C.
`c1cnc(N2CCN(CCCCn3cccn3)CC2)nc1` had a melting point of 124 °C.
The figure for `COc1ccc(-c2[nH]nc3c2C(=O)c2c(NC(=O)CN4CCC(O)CC4)cccc2-3)cc1` is above 300 °C.
As for `CSc1ccc(-n2cnc3ccc(-c4nnc(N)o4)cc32)cc1`, the melting point was in the range of 254 to 255 °C.
The figure for `Nc1nc2[nH]c(CCCCc3ccc(C(=O)N[C@@H](CCC(=O)O)C(=O)O)s3)cc2c(=O)[nH]1` is 179 to 180 °C; for `CCc1cc(-c2nc(C)c(-c3ccnc(Nc4ccc(CNC(C)=O)cc4)n3)s2)ccn1` it is 224 to 225 °C.
The figure for `c1ccc(C2=N[C@@H](CCP(c3ccccc3)c3ccccc3)CO2)cc1` is 52.5 to 54 °C; for `O=C(Cl)c1ccc(OCc2ccccc2)c(Cl)c1` it is 78 to 80 °C.
As for `Nn1c(=O)c(=O)[nH]c2ccc3ccc([N+](=O)[O-])cc3c21`, the figure is above 240 °C; as for `CC(C)C(C#N)C(=O)NC(N)=O` (stereo unspecified), 173 to 174 °C.
In turn, `FC(F)(F)c1ccc(COc2ncncc2Oc2ccccc2)cc1` showed a melting point of 56 to 57 °C.
The figure for `CCCc1nc(N)nc(N)c1N1CCN(Cc2ccccc2)CC1` is 157 to 160 °C; for `CCCCCCCCCCC[C@H](CC(=O)N[C@@H](CO)CCCNC(=O)OCc1ccccc1)OCc1ccccc1` it is 118 °C.
`O=Cc1cccnc1SCc1ccccc1`: the melting point fell in the range of 71.5 to 73 °C.
As for `CCCC(=O)c1cc2ccccc2cc1C(=O)O`, the figure is 109 °C; as for `CC(C)c1ccc(N(Cc2ccc(N(C)C)cc2)C(=O)C2CCS(=O)(=O)c3ccccc32)cc1` (stereo unspecified), 185 to 187 °C.
The figure for `O=C(COc1ccc(C(=O)C=CC(=O)N2CCCCC2)c(O)c1)Nc1nc2ccccc2s1` is 207 to 210 °C; for `O=C(O)CC(NS(=O)(=O)c1ccc2ccccc2c1)c1ccccc1O` (stereo unspecified) it is 190 to 200 °C.
As for `CC(=O)CC(=O)C=Cc1ccccc1`, the figure is 82 °C; as for `COc1ccc(C(O)(c2ccc3c(c2)c(-c2cccc(Cl)c2)nc2nnnn23)c2cncn2C)cc1` (stereo unspecified), 200 °C.
In the case of `CN(c1nc(=O)n(C)cc1F)S(=O)(=O)Cc1ccccc1`, the melting point lay in the range of 159 to 160 °C.
The figure for `CCCc1c(OCC(O)COc2ccc3c(c2CCC)OC(C(=O)O)CC3=O)ccc(C(C)=O)c1O` (stereo unspecified) is 68 to 72 °C; for `CC(=CCc1c(C)nc(N)nc1O)c1cc(Cl)ccc1Cl` it is above 250 °C.
As for `Nc1cccc(Sc2cccc3c2C(=O)c2cccc(Sc4cccc(N)c4)c2C3=O)c1`, the figure is 292 to 293 °C.
As for `CCC12CCC3C4=C(CCC3C1CCC2=O)CC(OC)=CC4` (stereo unspecified), the figure is 126 to 143 °C; as for `O=C1Nc2cccnc2Nc2ccc(Br)cc21`, 187 to 188 °C.
Turning to `C#Cc1ccnc(-c2cc(N)c(Br)cc2[N+](=O)[O-])c1`, the melting point was in the range of 226 to 228 °C.
`CC(C)N(C)C(=O)COCCCCCCCC[C@H]1C[C@]2(C)[C@@H](O)CC[C@H]2[C@@H]2CCc3cc(O)ccc3[C@@H]12`: the melting point came out at 126 °C.
With `O=C1NCCN1c1ccccc1`, the melting point fell in the range of 154 to 156 °C.
In turn, `COc1ccccc1C1=NNNN1C(c1ccccc1)(c1ccccc1)c1ccccc1` displayed a melting point of 165 to 170 °C.
In the case of `Cc1ccc(S(=O)(=O)Cc2ccccc2)cc1`, the melting point lay within 49 to 51 °C.
On to `Cc1ccc(S(=O)(=O)N(C)CC(=O)N[C@@H](Cc2ccccc2)C(=O)O)cc1` (Tos-[Sar]-Phe-OH), for which the melting point was 128 to 130 °C.
Turning to `Cn1cc(Br)nc(Br)c1=O`, the melting point lay in the range of 94 to 95 °C.
In the case of `COc1ccc(F)cc1OCCN1C(=O)c2ccccc2C1=O`, the melting point was 134 to 136 °C.
As for `CCOc1cc(CN2CCN(c3ccc(C(=O)NC4CC4)cc3C)CC2)cc2c1OC(C)C(=O)N2` (stereo unspecified), the figure is 223 to 224 °C; as for `CCCCc1ncc(/C=C2\C(=O)NC(=O)N2Cc2ccccc2)n1Cc1ccc(C(=O)O)cc1`, 297 to 298 °C; as for `CC(C)(C)[Si](n1cc(Br)c2ncccc21)(C(C)(C)C)C(C)(C)C`, 79 to 80 °C.
On to `CC1CC2(CN(O)C2=O)c2cc(F)ccc2O1` (stereo unspecified), for which the melting point fell in the range of 118 to 120 °C.
The figure for `COCCOc1ccc(CCCNS(C)(=O)=O)c(Oc2ncc(C(F)(F)F)cc2Cl)c1` is 89 to 90 °C; for `CCCCC[C@H]1CC[C@H](CCCCc2ccc(O)cc2)CC1` it is 86 °C.
As for `CCCCc1c(C(=O)c2ccc(OCCCN(CCCC)CCCC)cc2)[nH]c2ccc([N+](=O)[O-])cc12`, the figure is 80 °C.
`Cc1noc(NC(=O)N2CCN(c3ccnc(-c4cccc(F)c4F)n3)CC2)c1C` registered a melting point of 209 to 210 °C.
As for `Fc1ccc(-c2ncn(CCCN3CCOCC3)c2-c2ccncc2)cc1`, the figure is 149 to 150 °C.
The figure for `Cc1cc(C)cc(Oc2nc(Cl)nc(Cl)c2C(C)C)c1` is 107 to 108 °C; for `CCOC(=O)c1cc2c(C)cccc2n1CCC(=O)O` it is 133 to 134 °C; for `CCN1C(=O)NC(=C(C(C)=O)C(C)=O)C1=O` it is 152 to 153 °C.
The figure for `C#Cc1cc(Nc2ncnc3cnc(NC(=O)/C=C/CN(C)C)cc23)ccc1F` is 152 to 155 °C.
For the compound `CCCCCCC(C(=O)O)n1cnc(NC(=O)c2cccc(O)c2S(=O)(=O)O)c1` (stereo unspecified), the melting point was 238 to 240 °C.
With `O=S(=O)(c1scc(Br)c1Br)n1nnc2c(Br)cc(C(F)(F)F)cc21`, the melting point is 192 to 195 °C.
The figure for `NC1=NN(c2ccccn2)CC1` is 168 to 170 °C; for `CC(C)(C)c1ccc(-c2cc(=O)cc(N3CCOCC3)s2)cc1` it is 172 to 173 °C.
Compound `Cc1noc(-c2cccc(Oc3ccc4c(c3)S(=O)(=O)NCCO4)c2)n1` came in with a melting point of 140 °C.

What is called melting point is the temperature of the solid-liquid transition.
